# Like-named read-outs stand apart in the source and are kept apart here.
# Columns and labels:
# [1] = system: Candida albicans ATCC 11651; assay: In vivo systemic Candida infection in mice, primary assay; parameters: species or system Candida albicans; CF-1 female mice; conditions: 150 mg/kg per day; for responders at 150 mg/kg: Candida albicans, read-out: % Survival
# Outline: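 CF-1 female mice (20 g, 10 per group) were infected IV with 0.2 ml of 1×10^7/ml C. albicans ATCC 11651, then given test compound subcutaneously at 50 or 150 mg/kg/day at 1 and 6 h post-infection and once daily for three more days. Survival was followed for 21 days against infected untreated mice; ≥70% protection at 14 days was scored active.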
# Venturia inaequalis = assay: Example A apple scab; assay type: in vivo; conditions: 100 PPM, read-out: disease control rating, Ex. A
# Outline: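 Test compounds were dissolved in acetone (6% of final volume) and suspended at 100 or 20 ppm in purified water containing 250 ppm of the surfactant TREM 014 (polyhydric alcohol esters). Apple seedlings were sprayed with this suspension to the point of run-off.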
# [2] = system: Cercosporidium personatum; assay: Example B Peanut Late Leafspot; assay type: in vivo; conditions: Nothopassalora personata; 100 PPM; read-out: disease control rating, Ex. B
# Outline: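 Compounds were dissolved in acetone (6% of final volume) and suspended at 100 or 20 ppm in purified water containing 250 ppm TREM 014 surfactant (polyhydric alcohol esters). The suspension was sprayed to run-off on peanut seedlings.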
# Botrytis cinerea = assay: Example C bean grey mold; assay type: in vivo; conditions: 100 PPM; for pest or weed control at 100 ppm: Botrytis cinerea, 24 h, read-out: disease control rating, Ex. C
# Outline: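 Test compounds were taken up in acetone (6% of final volume) and suspended at 100 or 20 ppm in purified water containing 250 ppm TREM 014 surfactant (polyhydric alcohol esters). Broad bean seedlings were sprayed with this suspension until run-off.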
# [3] = system: Erysiphe graminis f. sp. tritici; assay: Example D wheat powdery mildew; assay type: in vivo; conditions: Blumeria graminis, 144 h; 100 PPM; read-out: disease control rating, Ex. D
# Outline: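 Compounds were dissolved in acetone (6% of final volume), then suspended at 100 or 20 ppm in purified water containing 250 ppm TREM 014 surfactant. Wheat seedlings were sprayed with this suspension to run-off.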
# Pyricularia oryzae = assay: whole plant or invertebrate; assay type: in vivo; conditions: for pest or weed control at 100 ppm: Pyricularia oryzae, 120 h, read-out: disease control rating, Ex. E, 100 PPM
# Rhizoctonia solani [4] = assay: Example F rice sheath blight; assay type: in vivo; conditions: 100 PPM; for pest or weed control at 100 ppm: Rhizoctonia solani, 144 h, read-out: disease control rating, Ex. F
# Outline: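 Compounds, dissolved in acetone at 6% of final volume, were suspended at 100 or 20 ppm in purified water with 250 ppm polyhydric alcohol ester surfactant (TREM 014). Rice seedlings were sprayed with this suspension to run-off.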
# Puccinia recondita = assay: Example G wheat leaf rust; assay type: in vivo; conditions: 100 PPM, read-out: disease control rating, Ex. G
# Phytophthora infestans = assay: whole plant or invertebrate; assay type: in vivo; conditions: for pest or weed control at 100 ppm: Phytophthora infestans, in Solanum lycopersicum, read-out: disease control rating, Ex. H, 100 PPM
# Plasmorpara viticola = assay: Example I grape downy mildew; assay type: in vivo; conditions: read-out: disease control rating, Ex. I
# Outline: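 Applied as a foliar spray to run-off on grape seedlings, the compounds were formulated at 100 or 20 ppm in water containing 250 ppm TREM 014, with acetone making up 6% of the volume.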
# Pythium aphanadermatum = assay: Example J cucumber damping off; assay type: in vivo; conditions: Pythium, 336 h; 5 kg/ha; read-out: disease control rating, Ex. J
# Outline: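 This cucumber damping-off test used soil and seeds infested with a sand–cereal preparation carrying mycelium of Pythium aphanadermatum. Incubation took place in a growth chamber held at 30° C. for 14 days. Afterwards, the extent of disease was scored as a disease control rating.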
# Rhizoctonia solani [5] = assay: Example K cotton blight; assay type: in vivo; conditions: 336 h, 5 kg/ha, read-out: disease control rating, Ex. K
# Protocol: […] Seeds and soil were then inoculated with a mixture of sand, cereal and mycelium of the fungus Rhizoctonia solani, causal agent of cotton blight, and incubated in a growth chamber at 30° C. for 14 days. Disease ratings were then made.
# [6] = system: Fusarium oxysporum f. sp. cucumerinum; assay: Example L cucumber wilt; assay type: in vivo; conditions: 336 h, 5 kg/ha, read-out: disease control rating, Ex. L
# Protocol: […] Seeds and soil were then inoculated with a mixture of sand, cereal and mycelium of the fungus Fusarium oxysporum f. sp. cucumerinum, causal agent of cucumber wilt, and incubated in a growth chamber at 30° C. for 14 days. Disease ratings were then made.
# Sclerotium rolfsii = assay: Example M southern blight; assay type: in vivo; conditions: Agroathelia rolfsii, 336 h; 5 kg/ha; read-out: disease control rating, Ex. M
# Protocol: […] Seeds and soil were then inoculated with a mixture of sand, cereal and mycelium of the fungus Sclerotium rolfsii, causal agent of sourthern blight, and incubated in a growth chamber at 30° C. for 14 days. Disease ratings were then made.
# [7] = system: Candida albicans ATCC 11651; assay: In vitro antifungal MIC, microtiter broth dilution; conditions: for MIC: Candida albicans, ATCC11651, 24 h, read-out: MIC values, C. albicans, 30°, 24 hours
# [8] = system: Aspergillus fumigatus ATCC 28214; assay: In vitro antifungal MIC, microtiter broth dilution; conditions: for MIC: Aspergillus fumigatus, ATCC28214, 24 h, read-out: MIC values, A. fumigatus, 30°, 24 hours
SMILES,"responders at 150 mg/kg ([1]; ATCC11651, 168 h, day 7)","responders at 150 mg/kg ([1]; ATCC11651, 336 h, day 14)","responders at 150 mg/kg ([1]; ATCC11651, 504 h, day 21)",pest or weed control at 100 ppm (Venturia inaequalis),pest or weed control at 100 ppm [2],pest or weed control at 100 ppm (Botrytis cinerea),pest or weed control at 100 ppm [3],pest or weed control at 100 ppm (Pyricularia oryzae),pest or weed control at 100 ppm (Rhizoctonia solani [4]),pest or weed control at 100 ppm (Puccinia recondita),pest or weed control at 100 ppm (Phytophthora infestans),pest or weed control at 100 ppm (Plasmorpara viticola),pest or weed control at 5000 g/ha (Pythium aphanadermatum),pest or weed control at 5000 g/ha (Rhizoctonia solani [5]),pest or weed control at 5000 g/ha [6],pest or weed control at 5000 g/ha (Sclerotium rolfsii),MIC [7],MIC [8],also measured
C=C(c1ccccc1)C(O)(Cn1ncnc1S)c1ccc(F)cc1 (stereo not drawn) [Example 1278],0%,0%,0%,100%,100%,87%,85%,17%,36%,100%,0%,16%,0%,0%,0%,0%,≤ 0.4 µg/mL,> 100 µg/mL,
C=C(CN(C)C)C(O)(Cn1cncn1)c1ccc(Cl)cc1Cl (stereo not drawn) [Example 453],60%,40%,30%,55%,32%,75%,94%,0%,0%,100%,0%,0%,0%,0%,0%,0%,1.6 µg/mL,> 100 µg/mL,
"C=C(c1ccc(F)cc1)C(O)(Cn1cncn1)c1ccc(F)cc1 (single isomer, unassigned) [Example 1277]",100%,,,9%,65%,,0%,,,39%,,25%,0%,0%,0%,0%,,,"% Survival ([1]; day 14): 100%; % Survival ([1]; day 21): 90%; disease control rating, Ex. C (Botrytis cinerea): 0%; disease control rating, Ex. E (Pyricularia oryzae; 100 PPM): 0%; disease control rating, Ex. F (Rhizoctonia solani [4]): 0%; disease control rating, Ex. H (Phytophthora infestans; 100 PPM): 0%; MIC values, C. albicans ([7]; 30°, 24 hours): 0.03 µg/mL; MIC values, A. fumigatus ([8]; 30°, 24 hours): 6.3 µg/mL"
C=C(c1ccc(C(F)(F)F)cc1)C(O)(Cn1cncn1)c1ccc(F)cc1 (stereo not drawn) [Example 65],100%,70%,50%,34%,96%,94%,85%,30%,62%,100%,0%,0%,0%,0%,0%,0%,0.2 µg/mL,100 µg/mL,
